Patent US8378097B2, “3-(1,3-benzodioxol-5-yl)-6-(4-cyclopropylpiperazin-1-yl)-pyridazine, its salts and solvates and its use as histamine H3 receptor antagonist” (High Point Pharmaceuticals, LLC, priority 2006, dated 2013)
Where a name gives a salt, the structure may show the parent alone.

Columns and labels:
[1] = tests with mice: intake of food; format: in vivo; details: in tests with mice

With `c1cc2c(cc1-c1ccc(N3CCN(C4CC4)CC3)nn1)OCO2` [Example 1, 3-(1,3-Benzodioxol-5-yl)-6-(4-cyclopropylpiperazin-1-yl)pyridazine dihydrochloride] the mutagenic activity (mutagenic activity test) was “No mutagenic activity” and the “effect on the intake of food” value [1] was “reducing effect on the intake of food”.
